In general, IC50 refers to the concentration that gives 50% inhibition.

“Also recorded” adds a separate entry of the source.

T3 sequence (P22303 32-614): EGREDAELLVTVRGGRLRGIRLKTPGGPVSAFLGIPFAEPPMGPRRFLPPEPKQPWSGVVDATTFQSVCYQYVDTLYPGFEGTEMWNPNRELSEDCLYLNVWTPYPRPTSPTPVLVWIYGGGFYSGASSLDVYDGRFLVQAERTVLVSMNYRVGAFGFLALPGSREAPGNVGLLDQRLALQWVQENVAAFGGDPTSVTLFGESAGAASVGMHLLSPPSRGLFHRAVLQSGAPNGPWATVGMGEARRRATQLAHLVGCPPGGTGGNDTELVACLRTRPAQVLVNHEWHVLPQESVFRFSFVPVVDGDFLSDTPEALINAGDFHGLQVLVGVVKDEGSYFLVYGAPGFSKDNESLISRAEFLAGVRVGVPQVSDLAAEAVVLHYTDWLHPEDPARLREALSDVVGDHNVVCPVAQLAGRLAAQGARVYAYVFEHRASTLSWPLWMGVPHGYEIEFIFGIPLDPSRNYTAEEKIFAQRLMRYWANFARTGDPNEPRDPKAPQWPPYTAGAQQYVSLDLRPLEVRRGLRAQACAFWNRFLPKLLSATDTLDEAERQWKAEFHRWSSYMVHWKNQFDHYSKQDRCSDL

In the first series the target is T1, hMAO-B (Homo sapiens, UniProt P27338).
T1 construct: purchased Sigma Aldrich; host or cells: BTI-TN-5B1-4 insect cells
T1 sequence (P27338 1-520): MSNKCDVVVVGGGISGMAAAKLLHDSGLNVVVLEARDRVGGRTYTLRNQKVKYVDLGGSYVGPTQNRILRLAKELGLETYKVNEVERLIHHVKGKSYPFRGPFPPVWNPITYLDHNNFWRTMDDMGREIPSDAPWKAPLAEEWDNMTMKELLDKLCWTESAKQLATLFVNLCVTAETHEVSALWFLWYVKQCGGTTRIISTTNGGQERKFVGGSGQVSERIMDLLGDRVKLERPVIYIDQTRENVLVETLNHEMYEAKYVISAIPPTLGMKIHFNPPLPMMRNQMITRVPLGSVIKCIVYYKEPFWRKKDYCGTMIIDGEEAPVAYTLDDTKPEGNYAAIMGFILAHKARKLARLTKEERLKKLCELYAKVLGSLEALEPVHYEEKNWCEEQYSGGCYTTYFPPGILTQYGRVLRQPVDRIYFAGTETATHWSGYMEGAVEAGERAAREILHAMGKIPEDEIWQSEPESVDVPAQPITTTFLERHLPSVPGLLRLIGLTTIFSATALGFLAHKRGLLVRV
Description: HRP-Amplex Red coupled fluorimetric assay, hMAO-B. The following applies: 15 min incubation at 37 °C; 3 independent experiments; read-out: IC50 ± SEM, hMAO-B. In kind it is biochemical. How it is done:
(§1) Inhibitory potencies against human (h)AChE and hBChE were determined using the Ellman method and inhibitory potencies against hMAO-A and hMAO-B were determined with horseradish peroxidase (HRP)-Amplex Red coupled assay.
(§2) The effects of the test compounds on hMAO were investigated using a fluorimetric assay. Recombinant hMAO, expressed in BTI-TN-5B1-4 insect cells, p-tyramine hydrochloride, and horse-radish peroxidase type II were purchased from Sigma Aldrich, whereas Amplex Red was synthesized as reported previously.
(§3) In brief, 100 µL 50 mM sodium phosphate buffer (pH 7.4, 0.05 vol.% Triton X-114) containing the compounds or the reference inhibitors and hMAO were incubated for 15 min at 37 °C. The reaction was started by adding Amplex Red (final concentration, 250 µM), horseradish peroxidase (final activity, 2 U/mL), and p-tyramine (final concentration, 1 mM). The fluorescence increase (λex = 530 nm, λem = 590 nm) at 37 °C was monitored for 20 min. DMSO was used for control experiments. To determine the blank value (b), phosphate-buffered solution replaced the enzyme. Each measurement was performed in duplicate. The inhibitory potencies were expressed as the residual activities (RA) and IC50 values as described in Section 3.2.1. For the reversibility assay, the previously described protocol was followed.
As for `C#CCN1CCC(CCc2cccc(OC)c2)CC1` [Compound 8, 4-(3-methoxyphenethyl)-1-(prop-2-yn-1-yl)piperidine], the concentration for half-maximal inhibition (IC50) is 0.238 ± 0.0269 µM.

Take `C#CCN1CCC(CCc2ccc(OC(=O)Nc3ccccc3)cc2)CC1` [Compound 12, 4-(2-(1-(prop-2-yn-1-yl)piperidin-4-yl)ethyl)phenyl phenylcarbamate]: the IC50 is 9.7 ± 1.2 µM.

The test system of another series is MAO-B.
Test: not given
The following applies: binds covalently to N5 of FAD, crystal complex; cited from earlier work.
Turning to `C#CCN1CCC(/C=C/c2ccc(F)cc2)CC1` [A], the “MAO-B inhibition, type” value is “potent and irreversible MAO-B inhibitor”.

For another series, the target named is T2, hMAO-A (Homo sapiens, UniProt P21397).
T2 construct: purchased Sigma Aldrich; host or cells: BTI-TN-5B1-4 insect cells
T2 sequence (P21397 1-527): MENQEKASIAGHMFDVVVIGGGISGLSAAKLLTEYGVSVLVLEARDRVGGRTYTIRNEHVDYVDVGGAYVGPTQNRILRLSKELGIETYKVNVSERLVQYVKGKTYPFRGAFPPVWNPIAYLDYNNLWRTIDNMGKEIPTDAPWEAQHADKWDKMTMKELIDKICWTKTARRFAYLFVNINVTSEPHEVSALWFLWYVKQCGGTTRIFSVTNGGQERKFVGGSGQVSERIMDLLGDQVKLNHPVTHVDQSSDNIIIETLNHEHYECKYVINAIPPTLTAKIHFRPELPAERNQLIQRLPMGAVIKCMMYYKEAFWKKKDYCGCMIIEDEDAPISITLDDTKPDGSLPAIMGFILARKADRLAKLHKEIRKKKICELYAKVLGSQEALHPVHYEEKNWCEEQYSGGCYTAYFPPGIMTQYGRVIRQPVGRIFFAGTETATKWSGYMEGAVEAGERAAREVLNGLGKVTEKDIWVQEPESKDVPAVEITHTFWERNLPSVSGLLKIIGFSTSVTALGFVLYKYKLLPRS
In words: HRP-Amplex Red coupled fluorimetric assay, hMAO-A. In kind it is biochemical. The following applies: 0.25 h; residual activity at 100 µM compound; 15 min incubation at 37 °C; RA above 50% considered inactive; read-out: RA ± SD (%) at 100 µM, hMAO-A. Here is the method:
as §1, §2, §3
Regarding `C#CCN1CCC(CCc2ccc(OC)cc2)CC1` [Compound 7, 4-(4-methoxyphenethyl)-1-(prop-2-yn-1-yl)piperidine], the remaining activity at 100 µM was found to be 62.2 ± 1.8%.

`C#CCN1CCC(CCc2cccc(OC)c2)CC1` [Compound 8, 4-(3-methoxyphenethyl)-1-(prop-2-yn-1-yl)piperidine]: the remaining activity at 100 µM was found to be 59.8 ± 3.7%.

Consider `C#CCN1CCC(/C=C/c2ccc(OC)cc2)CC1` [Compound 6, (E)-4-(4-methoxystyryl)-1-(prop-2-yn-1-yl)piperidine], for which the remaining activity at 100 µM stood at 52.6 ± 0.7%.

Take `C#CCN1CCC(CCc2ccc(OC(=O)Nc3ccccc3)cc2)CC1` [Compound 12, 4-(2-(1-(prop-2-yn-1-yl)piperidin-4-yl)ethyl)phenyl phenylcarbamate]: the remaining activity at 100 µM turned out to be 56.7 ± 0.9%.

Staying with this series, now noted: 15 min incubation at 37 °C; 3 independent experiments; read-out: IC50 ± SEM, hMAO-A.
In the case of `C#CCN1CCC(CCc2ccc(O)cc2)CC1` [Compound 10, 4-(2-(1-(prop-2-yn-1-yl)piperidin-4-yl)ethyl)phenol], the IC50 amounted to 34 ± 5.8 µM.

For another series, the target named is T1, hMAO-B. Description: hMAO-B 100-fold dilution reversibility assay and IC50 shift at various pre-incubation times. In kind it is biochemical. The following applies: 100-fold dilution assay. How it is done: as §3
The reversibility was analyzed by one-way ANOVA and post-hoc comparisons were made using two-tailed Student’s t-test. p < 0.05—statistically significant. All data are means ± SEM (n = 2).
Figure 5 (A) A 100-fold dilution assay for hMAO-B inhibitors 12–14. L-Deprenyl was used as an irreversible inhibitor control; safinamide and isatin were used as reversible inhibitor controls. Data are mean values ± SEM (n = 2; each in quadruplicate): ∗, p < 0.05 (one-way ANOVA, with Bonferroni correction, followed by t-tests).
As for `C#CCN1CCC(CCc2ccc(OC(=O)Nc3ccccc3)cc2)CC1` [Compound 12, 4-(2-(1-(prop-2-yn-1-yl)piperidin-4-yl)ethyl)phenyl phenylcarbamate], the “Reversibility of hMAO-B inhibition” value was “reversible”.

Still in this series, the particulars now being: various pre-incubation times.
`C#CCN1CCC(CCc2ccc(OC(=O)Nc3ccccc3)cc2)CC1` [Compound 12, 4-(2-(1-(prop-2-yn-1-yl)piperidin-4-yl)ethyl)phenyl phenylcarbamate]: the “Time-dependence of hMAO-B inhibition (IC50 shift)” value is recorded as “absence of IC50 shift; also recorded: did not exhibit time-dependent inhibition”.

The next series concerns the target T3, hAChE (Homo sapiens, UniProt P22303).
T3 construct: gift from Xavier Brazzolotto, Florian Nachon and José Dias (IRBA, Brétigny-sur-Orge, France)
Description: Ellman method cholinesterase assay, hAChE. In kind it is biochemical. The following applies: residual activity at 100 µM compound; 5-min pre-incubation; RA above 50% considered inactive; read-out: RA ± SD (%) at 100 µM, hAChE. Here is the method: as §1
(§4) The inhibitory potencies of the compounds against the ChEs were determined using the Ellman method. 5,5′-Dithiobis (2-nitrobenzoic acid) (Ellman’s reagent; DTNB, St. Louis, MO, USA), butyrylthiocholine iodide, and acetylthiocholine iodides were from Sigma-Aldrich. Recombinant hAChE and hBChE at the stock concentration of 16.5 mg/mL and 14.5 mg/mL, respectively, were kindly donated by Xavier Brazzolotto, Florian Nachon, and José Dias (IRBA, Brétigny-sur-Orge, France). The enzyme solutions were prepared by dilution of the concentrated stocks in 0.1 M phosphate-buffered solution (pH 8.0). The reactions were carried out in a final volume of 300 µL of 0.1 M phosphate-buffered solution, pH 8.0, containing 370 µM DTNB, 500 μM butyrylthiocholine/acetylthiocholine, and approximately 1 nM or 50 pM hBChE or hAChE, respectively. The reactions were started by the addition of the substrate after 5-min pre-incubation at room temperature. For time-dependency measurements of hBChE inhibition, the pre-incubation time was varied (i.e., 1 min, 5 min, 15 min, 30 min). The final content of the organic solvent (DMSO) was always 1%. The formation of the yellow 5-thio-2-nitrobenzoate anion as a result of the reaction of DTNB with the thiocholines was monitored for 1 min as the change in absorbance at 412 nm, using a 96-well microplate reader (SynergyTM H4; BioTek Instruments, Inc., USA). The initial velocities in the presence (vi) and the absence (vo) of the test compounds were calculated. The inhibitory potencies were expressed as the residual activities, according to RA = (vi − b)/(vo − b), where b is the blank value using phosphate buffer without ChEs. […] The IC50 values were obtained by plotting the residual ChEs activities against the applied inhibitor concentrations, with the experimental data fitted to a four-parameter logistic function (GraphPad Prism 9.0; GraphPad Software Inc., San Diego, CA, USA).
In general terms: In Ellman's method for cholinesterases, released thiocholine reacts with DTNB.
For `C#CCN1CCC(CCc2ccc(OC)cc2)CC1` [Compound 7, 4-(4-methoxyphenethyl)-1-(prop-2-yn-1-yl)piperidine], the remaining activity at 100 µM came to 73.1 ± 4.3%.

For `C#CCN1CCC(CCc2cccc(OC)c2)CC1` [Compound 8, 4-(3-methoxyphenethyl)-1-(prop-2-yn-1-yl)piperidine], the remaining activity at 100 µM came out at 73.2 ± 8.9%.

As for `C#CCN1CCC(/C=C/c2ccc(OC)cc2)CC1` [Compound 6, (E)-4-(4-methoxystyryl)-1-(prop-2-yn-1-yl)piperidine], the remaining activity at 100 µM stood at 61.9 ± 1.2%.

`C#CCN1CCC(CCc2ccc(OC(=O)Nc3ccccc3)cc2)CC1` [Compound 12, 4-(2-(1-(prop-2-yn-1-yl)piperidin-4-yl)ethyl)phenyl phenylcarbamate]: the remaining activity at 100 µM came out at 52.2 ± 1.7%.

Regarding `C#CCN1CCC(CCc2ccc(O)cc2)CC1` [Compound 10, 4-(2-(1-(prop-2-yn-1-yl)piperidin-4-yl)ethyl)phenol], the remaining activity at 100 µM stood at 61.4 ± 2.7%.

A further series deals with T4, hBChE (Homo sapiens, UniProt P06276).
T4 construct: gift from Xavier Brazzolotto, Florian Nachon and José Dias (IRBA, Brétigny-sur-Orge, France)
T4 sequence (P06276 29-602): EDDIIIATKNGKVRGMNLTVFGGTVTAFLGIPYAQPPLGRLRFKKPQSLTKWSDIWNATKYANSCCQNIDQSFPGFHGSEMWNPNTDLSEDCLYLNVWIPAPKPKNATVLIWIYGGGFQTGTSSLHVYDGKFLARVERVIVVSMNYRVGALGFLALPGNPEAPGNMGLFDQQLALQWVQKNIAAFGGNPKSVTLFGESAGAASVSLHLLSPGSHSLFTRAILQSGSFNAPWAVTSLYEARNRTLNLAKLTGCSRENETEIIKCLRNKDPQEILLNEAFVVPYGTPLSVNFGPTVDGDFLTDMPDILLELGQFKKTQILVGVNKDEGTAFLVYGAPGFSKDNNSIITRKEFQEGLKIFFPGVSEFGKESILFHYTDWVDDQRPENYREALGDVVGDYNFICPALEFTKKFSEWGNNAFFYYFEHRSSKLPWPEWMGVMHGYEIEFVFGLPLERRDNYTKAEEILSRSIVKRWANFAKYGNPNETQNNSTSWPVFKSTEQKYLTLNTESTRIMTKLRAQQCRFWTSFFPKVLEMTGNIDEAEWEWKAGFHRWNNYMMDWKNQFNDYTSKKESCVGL
Description: Ellman method cholinesterase assay, hBChE. In kind it is biochemical. The following applies: residual activity at 100 µM compound; 5-min pre-incubation; RA above 50% considered inactive. Here is the method:
as §1, §4
`C#CCN1CCC(CCc2ccc(OC)cc2)CC1` [Compound 7, 4-(4-methoxyphenethyl)-1-(prop-2-yn-1-yl)piperidine]: the “RA ± SD (%) at 100 µM, hBChE” value stood at 51.2 ± 1.6%.

In the case of `C#CCN1CCC(CCc2cccc(OC)c2)CC1` [Compound 8, 4-(3-methoxyphenethyl)-1-(prop-2-yn-1-yl)piperidine], the “RA ± SD (%) at 100 µM, hBChE” value was 55.5 ± 0.2%.

Turning to `C#CCN1CCC(/C=C/c2ccc(OC)cc2)CC1` [Compound 6, (E)-4-(4-methoxystyryl)-1-(prop-2-yn-1-yl)piperidine], the “RA ± SD (%) at 100 µM, hBChE” value turned out to be 68.8 ± 0.6%.

Regarding `C#CCN1CCC(CCc2ccc(OC(=O)Nc3ccccc3)cc2)CC1` [Compound 12, 4-(2-(1-(prop-2-yn-1-yl)piperidin-4-yl)ethyl)phenyl phenylcarbamate], the “RA ± SD (%) at 100 µM, hBChE” value was found to be 60.2 ± 1.8%.

Take `C#CCN1CCC(CCc2ccc(O)cc2)CC1` [Compound 10, 4-(2-(1-(prop-2-yn-1-yl)piperidin-4-yl)ethyl)phenol]: the “RA ± SD (%) at 100 µM, hBChE” value is 53.8 ± 0.6%.

Values taken from publication PMC8305717, “4-Phenethyl-1-Propargylpiperidine-Derived Dual Inhibitors of Butyrylcholinesterase and Monoamine Oxidase B” (Molecules, 2021).
